For six molecules, speed of sound results are on record in the NIST ThermoML archive (doi:10.1016/j.jct.2014.07.026).

The term speed of sound denotes how fast a sound wave travels through the sample.

Data set [1] in a line: mn = molality of the nth substance listed, in mol/kg. To be noted: 298.15 K; 100 kPa; Liquid; Frequency=2 MHz; Linear variable-path acoustic interferometer; m2 = 0.
The conditions of data set [2]: 298.15 K; 100 kPa; Liquid; Frequency=2 MHz; Linear variable-path acoustic interferometer.

Numbers after ± are expanded uncertainties.

With `O` [water] + CC(C)[C@H](N)C(=O)[O-].CCCCn1cc[n+](C)c1, the speed of sound in data set [1] turned out to be 1497.6 ± 2.5 m/s.

As for `O` [water] + CCCCn1cc[n+](C)c1.C[C@H](N)C(=O)[O-], in data set [1], the speed of sound was 1497.8 ± 2.5 m/s.

As for `O` [water] + CCCCn1cc[n+](C)c1.NCC(=O)[O-], the speed of sound in data set [1] worked out at 1497.6 ± 2.5 m/s.

As for `O` [water] + CC(C)C[C@H](N)C(=O)[O-].CCCCn1cc[n+](C)c1, the speed of sound in data set [1] was 1497.6 ± 2.5 m/s.

As for `O` [water] + CCCCn1cc[n+](C)c1.CC[C@H](C)[C@H](N)C(=O)[O-], the speed of sound in data set [1] came out at 1497.8 ± 2.5 m/s.

In the case of `O` [water], the speed of sound in data set [2] amounted to 1497.7 ± 2.5 m/s.
